Where “and” joins values, the source holds several entries; their conditions need not be identical. Equal entries are not always repeated.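 48-hour exposure; five concentrations; linearly interpolated endpoints. GI50 = concentration required for 50% inhibition of growth. TGI is the concentration that stops growth completely.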
Experiments:
Assay in all cases: DTP human tumour cell line panel, 48 h
SF-268 CNS = tested on: SF-268 CNS
SK-MEL-28 melanoma = tested on: SK-MEL-28 melanoma
HOP-62 NSCLC = tested on: HOP-62 NSCLC
SN12C renal = tested on: SN12C renal
MALME-3M melanoma = tested on: MALME-3M melanoma
BT-549 breast = tested on: BT-549 breast
HL-60(TB) leukemia = tested on: HL-60(TB) leukemia
A498 renal = tested on: A498 renal
ACHN renal = tested on: ACHN renal
CCRF-CEM leukemia = tested on: CCRF-CEM leukemia
SR leukemia = tested on: SR leukemia
TK-10 renal = tested on: TK-10 renal
MDA-N = tested on: MDA-N
NCI-H522 lung = tested on: NCI-H522 lung
SK-MEL-2 melanoma = tested on: SK-MEL-2 melanoma
MDA-MB-231 breast = tested on: MDA-MB-231 breast
T-47D breast = tested on: T-47D breast
OVCAR-8 ovarian = tested on: OVCAR-8 ovarian
PC-3 prostate = tested on: PC-3 prostate
NCI-H226 lung = tested on: NCI-H226 lung
KM12 colon = tested on: KM12 colon
OVCAR-5 ovarian = tested on: OVCAR-5 ovarian
DU-145 prostate = tested on: DU-145 prostate
NCI-H460 lung = tested on: NCI-H460 lung
EKVX NSCLC = tested on: EKVX NSCLC
RXF 393 renal = tested on: RXF 393 renal
OVCAR-3 ovarian = tested on: OVCAR-3 ovarian
SNB-75 CNS = tested on: SNB-75 CNS
NCI/ADR-RES ovarian = tested on: NCI/ADR-RES ovarian
UACC-257 melanoma = tested on: UACC-257 melanoma
IGROV1 ovarian = tested on: IGROV1 ovarian
M14 melanoma = tested on: M14 melanoma
K-562 leukemia = tested on: K-562 leukemia
NCI-H23 lung = tested on: NCI-H23 lung
COLO 205 colon = tested on: COLO 205 colon
HOP-92 NSCLC = tested on: HOP-92 NSCLC
HCC-2998 colon = tested on: HCC-2998 colon
RPMI-8226 leukemia = tested on: RPMI-8226 leukemia
UO-31 renal = tested on: UO-31 renal
LOX IMVI melanoma = tested on: LOX IMVI melanoma
SNB-19 CNS = tested on: SNB-19 CNS
HCT-15 colon = tested on: HCT-15 colon
SW-620 colon = tested on: SW-620 colon
CAKI-1 renal = tested on: CAKI-1 renal
A549 NSCLC = tested on: A549 NSCLC
U251 CNS = tested on: U251 CNS
MCF7 breast = tested on: MCF7 breast
HS 578T breast = tested on: HS 578T breast
SK-MEL-5 melanoma = tested on: SK-MEL-5 melanoma
MDA-MB-435 = tested on: MDA-MB-435
SK-OV-3 ovarian = tested on: SK-OV-3 ovarian
MOLT-4 leukemia = tested on: MOLT-4 leukemia
786-0 renal = tested on: 786-0 renal
HCT-116 colon = tested on: HCT-116 colon
SF-295 CNS = tested on: SF-295 CNS
HT29 colon = tested on: HT29 colon
SF-539 CNS = tested on: SF-539 CNS
UACC-62 melanoma = tested on: UACC-62 melanoma
OVCAR-4 ovarian = tested on: OVCAR-4 ovarian

O=c1cnn(C/C=C/CO)c(=O)[nH]1
TGI (SF-268 CNS): > 100 µM
TGI (SK-MEL-28 melanoma): > 100 µM
TGI (HOP-62 NSCLC): > 100 µM
TGI (SN12C renal): > 100 µM
TGI (MALME-3M melanoma): > 100 µM
TGI (BT-549 breast): > 100 µM
TGI (HL-60(TB) leukemia): > 100 µM
TGI (A498 renal): > 100 µM
TGI (ACHN renal): > 100 µM
TGI (CCRF-CEM leukemia): > 100 µM
TGI (SR leukemia): > 100 µM
TGI (TK-10 renal): > 100 µM
TGI (MDA-N): > 100 µM
TGI (NCI-H522 lung): > 100 µM
TGI (SK-MEL-2 melanoma): > 100 µM
TGI (MDA-MB-231 breast): > 100 µM
TGI (T-47D breast): > 100 µM
TGI (OVCAR-8 ovarian): > 100 µM
TGI (PC-3 prostate): > 100 µM
TGI (NCI-H226 lung): > 100 µM
TGI (KM12 colon): > 100 µM
TGI (OVCAR-5 ovarian): > 100 µM
TGI (DU-145 prostate): > 100 µM
TGI (NCI-H460 lung): > 100 µM
TGI (EKVX NSCLC): > 100 µM
TGI (RXF 393 renal): > 100 µM
TGI (OVCAR-3 ovarian): > 100 µM
TGI (SNB-75 CNS): > 100 µM
TGI (NCI/ADR-RES ovarian): > 100 µM
TGI (UACC-257 melanoma): > 100 µM
TGI (IGROV1 ovarian): > 100 µM
TGI (M14 melanoma): > 100 µM
TGI (K-562 leukemia): > 100 µM
TGI (NCI-H23 lung): > 100 µM
TGI (COLO 205 colon): > 100 µM
TGI (HOP-92 NSCLC): > 100 µM
TGI (HCC-2998 colon): > 100 µM
TGI (RPMI-8226 leukemia): > 100 µM
TGI (UO-31 renal): > 100 µM
TGI (LOX IMVI melanoma): 86 µM
TGI (SNB-19 CNS): > 100 µM
TGI (HCT-15 colon): > 100 µM
TGI (SW-620 colon): > 100 µM
TGI (CAKI-1 renal): > 100 µM
TGI (A549 NSCLC): > 100 µM
TGI (U251 CNS): > 100 µM
TGI (MCF7 breast): > 100 µM
TGI (HS 578T breast): > 100 µM
TGI (SK-MEL-5 melanoma): > 100 µM
TGI (MDA-MB-435): > 100 µM

C=C(Cl)C(Br)(CCl)CCC(Br)C(C)(C)Cl (configuration not stated)
TGI (SF-268 CNS): 8.32 µM and 8.82 µM
TGI (SK-OV-3 ovarian): 27.1 µM
TGI (MOLT-4 leukemia): 8.82 µM
GI50 (SK-MEL-28 melanoma): 5.88 µM
TGI (SK-MEL-28 melanoma): 14.2 µM
TGI (HOP-62 NSCLC): 7.66 µM
GI50 (SN12C renal): 1890 nM
TGI (SN12C renal): 7.06 µM and 3.6 µM
GI50 (MALME-3M melanoma): 2220 nM
TGI (MALME-3M melanoma): 8.51 µM and 4.96 µM
GI50 (BT-549 breast): 1990 nM
TGI (BT-549 breast): 3.83 µM and 4.53 µM
TGI (HL-60(TB) leukemia): 5.19 µM
GI50 (786-0 renal): 1670 nM
TGI (786-0 renal): 3.73 µM and 3.21 µM
TGI (A498 renal): 35.3 µM
GI50 (ACHN renal): 3.94 µM
TGI (ACHN renal): 9.71 µM
GI50 (CCRF-CEM leukemia): 223 nM
TGI (CCRF-CEM leukemia): 6.34 µM and 1.38 µM
TGI (SR leukemia): 7.28 µM
TGI (HCT-116 colon): 3.14 µM and 3.21 µM
TGI (TK-10 renal): 24.6 µM
GI50 (MDA-N): 2050 nM
TGI (MDA-N): 7.34 µM and 4.3 µM
TGI (SF-295 CNS): 19.9 µM
GI50 (NCI-H522 lung): 2820 nM
TGI (NCI-H522 lung): 9.26 µM and 6.43 µM
GI50 (SK-MEL-2 melanoma): 3.14 µM
TGI (SK-MEL-2 melanoma): 7.42 µM
GI50 (MDA-MB-231 breast): 2020 nM
TGI (MDA-MB-231 breast): 2.32 µM and 3.77 µM
GI50 (T-47D breast): 30.1 µM
GI50 (OVCAR-8 ovarian): 2260 nM
TGI (OVCAR-8 ovarian): 5.69 µM
TGI (HT29 colon): 4.23 µM
TGI (PC-3 prostate): 14.2 µM
GI50 (NCI-H226 lung): 1910 nM
TGI (NCI-H226 lung): 5.22 µM
GI50 (KM12 colon): 2940 nM
TGI (KM12 colon): 9.46 µM
TGI (OVCAR-5 ovarian): 19.4 µM
TGI (DU-145 prostate): 26.7 µM
TGI (NCI-H460 lung): 20.7 µM
TGI (EKVX NSCLC): 12.8 µM
TGI (RXF 393 renal): 6.98 µM and 5.42 µM
GI50 (OVCAR-3 ovarian): 2010 nM
TGI (OVCAR-3 ovarian): 3.73 µM
TGI (SNB-75 CNS): 11 µM
GI50 (NCI/ADR-RES ovarian): 4.39 µM
TGI (NCI/ADR-RES ovarian): 10.9 µM
TGI (UACC-257 melanoma): 7.78 µM and 8.58 µM
GI50 (IGROV1 ovarian): 2130 nM
TGI (IGROV1 ovarian): 4.16 µM
GI50 (M14 melanoma): 2010 nM
TGI (M14 melanoma): 7.74 µM and 4.9 µM
GI50 (K-562 leukemia): 7.84 µM
TGI (K-562 leukemia): 9.43 µM and 40.4 µM
GI50 (NCI-H23 lung): 2460 nM
TGI (NCI-H23 lung): 5.57 µM
GI50 (COLO 205 colon): 2130 nM
TGI (COLO 205 colon): 4.64 µM
GI50 (SF-539 CNS): 1980 nM
TGI (SF-539 CNS): 3.86 µM
TGI (HCC-2998 colon): 30.5 µM
TGI (RPMI-8226 leukemia): 3.06 µM
GI50 (UO-31 renal): 2170 nM
TGI (UO-31 renal): 8.19 µM and 4.53 µM
GI50 (LOX IMVI melanoma): 1760 nM
TGI (LOX IMVI melanoma): 3.73 µM and 4.22 µM
TGI (SNB-19 CNS): 8.73 µM
GI50 (UACC-62 melanoma): 2170 nM
TGI (UACC-62 melanoma): 6.83 µM
GI50 (HCT-15 colon): 2010 nM
TGI (HCT-15 colon): 9.57 µM and 3.94 µM
GI50 (SW-620 colon): 1460 nM
TGI (SW-620 colon): 4.54 µM and 3.23 µM
GI50 (CAKI-1 renal): 3.69 µM
TGI (CAKI-1 renal): 8.08 µM and 10.2 µM
GI50 (OVCAR-4 ovarian): 3.25 µM
TGI (OVCAR-4 ovarian): 8.24 µM
TGI (A549 NSCLC): 38.1 µM
GI50 (U251 CNS): 2740 nM
TGI (U251 CNS): 6.93 µM
GI50 (MCF7 breast): 4.08 µM
TGI (MCF7 breast): 7.13 µM and 15.6 µM
GI50 (HS 578T breast): 2620 nM
TGI (HS 578T breast): > 27.9 µM
TGI (SK-MEL-5 melanoma): 6.96 µM and 6.1 µM
GI50 (MDA-MB-435): 2130 nM
TGI (MDA-MB-435): 8.65 µM and 4.27 µM

CCOC(=O)CN1C(=O)c2ccc(NC(=O)C(=O)O)cc2S1(=O)=O
TGI (SF-268 CNS): > 100 µM
TGI (SK-OV-3 ovarian): > 100 µM
TGI (MOLT-4 leukemia): > 100 µM
TGI (SK-MEL-28 melanoma): > 100 µM
TGI (HOP-62 NSCLC): > 100 µM
TGI (SN12C renal): > 100 µM
TGI (MALME-3M melanoma): > 100 µM
TGI (BT-549 breast): > 100 µM
TGI (HL-60(TB) leukemia): > 100 µM
TGI (786-0 renal): > 100 µM
TGI (A498 renal): > 100 µM
TGI (ACHN renal): > 100 µM
TGI (CCRF-CEM leukemia): > 100 µM
TGI (SR leukemia): > 100 µM
TGI (HCT-116 colon): > 100 µM
TGI (TK-10 renal): > 100 µM
TGI (MDA-N): > 100 µM
TGI (SF-295 CNS): > 100 µM
TGI (NCI-H522 lung): > 100 µM
TGI (SK-MEL-2 melanoma): > 100 µM
TGI (MDA-MB-231 breast): > 100 µM
TGI (T-47D breast): > 100 µM
TGI (OVCAR-8 ovarian): > 100 µM
TGI (HT29 colon): > 100 µM
TGI (PC-3 prostate): > 100 µM
TGI (NCI-H226 lung): > 100 µM
TGI (KM12 colon): > 100 µM
TGI (OVCAR-5 ovarian): > 100 µM
TGI (DU-145 prostate): > 100 µM
TGI (NCI-H460 lung): > 100 µM
TGI (EKVX NSCLC): > 100 µM
TGI (RXF 393 renal): > 100 µM
TGI (NCI/ADR-RES ovarian): > 100 µM
TGI (UACC-257 melanoma): > 100 µM
TGI (IGROV1 ovarian): > 100 µM
TGI (M14 melanoma): > 100 µM
TGI (K-562 leukemia): > 100 µM
TGI (NCI-H23 lung): > 100 µM
TGI (COLO 205 colon): > 100 µM
TGI (HOP-92 NSCLC): > 100 µM
TGI (HCC-2998 colon): > 100 µM
TGI (RPMI-8226 leukemia): > 100 µM
TGI (UO-31 renal): > 100 µM
TGI (LOX IMVI melanoma): > 100 µM
TGI (SNB-19 CNS): > 100 µM
TGI (UACC-62 melanoma): > 100 µM
TGI (HCT-15 colon): > 100 µM
TGI (SW-620 colon): > 100 µM
TGI (CAKI-1 renal): > 100 µM
TGI (OVCAR-4 ovarian): > 100 µM
TGI (A549 NSCLC): > 100 µM
TGI (U251 CNS): > 100 µM
TGI (MCF7 breast): > 100 µM
TGI (HS 578T breast): > 100 µM
TGI (SK-MEL-5 melanoma): > 100 µM
TGI (MDA-MB-435): > 100 µM

Source: PubChem BioAssay (NCI)
